Assay results reported in patent publication US20240199555A1, “APPLICATIONS OF BIASED LIGANDS OF THE SEROTONIN 5-HT7 RECEPTOR FOR THE TREATMENT OF PAIN, MULTIPLE SCLEROSIS AND THE CONTROL OF THERMOREGULATION” (Centre National de la Recherche Scientifique, priority 2021, published 2024).
Read-outs that look alike come from different tables or passages of the source.

Experiments:
human 5-HT7a receptor = human 5-HT7a receptor (Homo sapiens (Human), UniProt P34969); test: Radioligand binding competition, filtration binding assay, 5-HT7a; conditions: affinity on 5-HT7 receptor, table of new compounds
Sequence of human 5-HT7a receptor (P34969 other isoform, or with tags, fused parts or gaps): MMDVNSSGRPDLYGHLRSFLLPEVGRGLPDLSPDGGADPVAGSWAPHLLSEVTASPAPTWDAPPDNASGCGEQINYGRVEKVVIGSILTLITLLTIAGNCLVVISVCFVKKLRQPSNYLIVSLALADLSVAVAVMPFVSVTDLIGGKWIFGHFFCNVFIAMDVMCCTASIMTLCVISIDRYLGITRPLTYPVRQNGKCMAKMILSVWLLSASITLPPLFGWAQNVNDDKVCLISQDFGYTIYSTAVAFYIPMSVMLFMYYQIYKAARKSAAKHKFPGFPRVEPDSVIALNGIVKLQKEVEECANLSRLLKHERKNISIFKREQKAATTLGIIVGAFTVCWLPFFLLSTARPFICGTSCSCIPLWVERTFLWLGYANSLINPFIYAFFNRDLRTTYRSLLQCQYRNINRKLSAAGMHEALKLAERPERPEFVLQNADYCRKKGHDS
Procedure: (§1) FIG. 14: Testing of 8 molecules for radioligand binding competition activity on recombinant human 5-HT1A, 5-HT2A, 5-HT2Cedited, 5-HT6, 5-HT7 and D2(long) receptors using filtration binding assays.
(§2) Radioligand Binding experiments were conducted with Epics Therapeutics membrane preparations. Receptor accession numbers, cellular background and reference compounds are shown in this table.
Reference values thus obtained for the test were compared to historical values obtained from the same receptor and used to validate the experimental session. For replicate determinations, the maximum variability tolerated in the test was of +/−20% around the average of the replicates.
(§3) Dose-response data from test compounds were analyzed with XLfit (IDBS) software using nonlinear regression applied to a sigmoidal dose-response model and the following equation: • XL Fit fit Model 203: 4 Parameter Logistic Model • A: Bottom • B: TOP • C: LogEC50 • D: Hill

[1] = target: human 5-HT2Cedited receptor (Homo sapiens, UniProt P28335); test: Radioligand binding competition, 5-HT2Cedited
Sequence of human 5-HT2Cedited receptor (P28335 33-458 limits assumed): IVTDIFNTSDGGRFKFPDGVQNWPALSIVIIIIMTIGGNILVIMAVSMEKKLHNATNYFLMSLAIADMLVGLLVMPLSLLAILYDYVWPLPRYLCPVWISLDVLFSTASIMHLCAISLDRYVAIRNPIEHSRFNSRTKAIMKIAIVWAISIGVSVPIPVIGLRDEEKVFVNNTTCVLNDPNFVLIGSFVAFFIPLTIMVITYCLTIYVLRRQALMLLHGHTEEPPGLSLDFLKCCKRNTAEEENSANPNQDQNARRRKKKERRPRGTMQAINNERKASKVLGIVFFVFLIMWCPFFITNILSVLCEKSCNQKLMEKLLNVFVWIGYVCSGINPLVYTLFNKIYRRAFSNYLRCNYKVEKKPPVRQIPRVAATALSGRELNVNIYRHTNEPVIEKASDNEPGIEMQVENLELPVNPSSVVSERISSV
Procedure: as §1, §2
(§4) The new compounds have been tested by radioligand binding competition activity at the human 5-HT1A (FAST-0500B), 5-HT2A (FAST-0505B), 5-HT2Cedited (FAST-0507B), 5-HT6 (FAST-0509B), 5-HT7a (FAST-05111B) and D2(long) (FAST-0101B) receptors at seven (7) concentrations, in duplicate. […] Reference values thus obtained for the test were compared to historical values obtained from the same receptor and used to validate the experimental session. For replicate determinations, the maximum variability tolerated in the test was of +/−20% around the average of the replicates.
as §3

human 5-HT1A receptor = human 5-HT1A receptor (Homo sapiens (Human), UniProt P08908); test: Radioligand binding competition, 5-HT1A; conditions: selectivity panel; for IC50: read-out: RLB 5-HT1A IC50; for Ki: read-out: RLB 5-HT1A Ki
Sequence of human 5-HT1A receptor (P08908 whole entry): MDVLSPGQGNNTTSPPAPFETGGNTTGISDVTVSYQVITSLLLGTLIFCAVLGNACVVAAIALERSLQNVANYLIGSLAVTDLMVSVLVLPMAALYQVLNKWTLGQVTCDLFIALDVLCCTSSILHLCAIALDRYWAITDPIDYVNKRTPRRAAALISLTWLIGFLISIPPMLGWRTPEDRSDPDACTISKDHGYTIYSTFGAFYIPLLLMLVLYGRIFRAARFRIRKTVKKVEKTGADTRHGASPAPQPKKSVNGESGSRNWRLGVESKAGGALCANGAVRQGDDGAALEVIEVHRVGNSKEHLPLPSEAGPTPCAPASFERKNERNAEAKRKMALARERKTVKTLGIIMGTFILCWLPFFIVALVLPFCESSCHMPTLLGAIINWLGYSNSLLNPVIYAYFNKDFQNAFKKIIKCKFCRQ
Procedure: as §1, §2, §4, §3

human 5-HT2A receptor = human 5-HT2A receptor (Homo sapiens (Human), UniProt P28223); test: Radioligand binding competition, 5-HT2A; conditions: selectivity panel; for IC50: read-out: RLB 5-HT2A IC50; for Ki: read-out: RLB 5-HT2A Ki
Sequence of human 5-HT2A receptor (P28223 whole entry): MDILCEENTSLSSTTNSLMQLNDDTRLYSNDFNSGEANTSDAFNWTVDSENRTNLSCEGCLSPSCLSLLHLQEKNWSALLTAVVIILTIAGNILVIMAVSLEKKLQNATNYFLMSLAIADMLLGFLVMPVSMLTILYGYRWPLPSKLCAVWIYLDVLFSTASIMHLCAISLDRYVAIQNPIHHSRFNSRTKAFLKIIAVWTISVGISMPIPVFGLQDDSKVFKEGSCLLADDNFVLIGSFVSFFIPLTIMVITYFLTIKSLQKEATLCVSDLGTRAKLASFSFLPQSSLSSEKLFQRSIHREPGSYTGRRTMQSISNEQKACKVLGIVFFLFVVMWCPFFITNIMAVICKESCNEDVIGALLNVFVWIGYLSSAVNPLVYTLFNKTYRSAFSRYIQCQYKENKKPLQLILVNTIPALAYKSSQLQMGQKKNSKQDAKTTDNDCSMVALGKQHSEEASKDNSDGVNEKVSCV
Procedure: as §1, §2, §4, §3

mice [2] = test: Tail immersion test (50° C.); type: in vivo; conditions: administrated alone, i.p.
Procedure: (A) Experimental protocol summary used. (B) Mice were subcutaneously injected with two different doses of the 5-HT7 receptor agonist Serodolin, 1 mg/kg or 5 mg/kg and 10 min later their tail extremity was immersed in water heated to 50 degrees. […] The effect of injections (Serodolin or E55888) was evaluated at TO, 30 min and 60 min corresponding to 10, 40 and 70 min after compound injections. […] Their tail extremity was immersed in water heated to 50 degrees at TO (E) or 30 min later (F) corresponding to 10 and 40 min after agonist injections. […] Statistical analysis was done using Tukey's multiple comparison test.
Tail immersion test. Nociception was assessed with the tail immersion test, 10 min and 40 min after E55888 (5 mg/kg) or Serodolin (5 mg/kg) tail subcutaneous injections, in the water heated to 50° C. Vehicle (20% DMSO, 5% Tween 80 diluted in PBS solution) was used as a control group. These different groups were intraperitoneally injected (+) or not (−) with the 5-HT7R antagonist SB269960 (5 mg/kg) 10 min before the ligand injection. The tail withdrawal latency (s) was measured for each animal.

mice [3] = test: Acetic acid-induced writhing test; type: in vivo; conditions: 3 mg/kg, s.c., positive control
Procedure: (§5) FIG. 9: Analgesic effect of Serodolin in the acetic acid-induced writhing test. In this test, nociception was induced by an intraperitoneally injection (ip) of 0.1 ml/10 g acid acetic solution (10 ml/kg) in peripheral origin. Serodolin at increasing dosage was administrated by oral (po), intravenous (iv) or subcutaneous (sc) route before acid acetic injection (upper panel). Positive control animals were pretreated morphine (3 mg/kg, sc) 10 minutes before acetic acid. Five minutes after i.p. injection of acetic acid the number of writhing was recorded for 10 minutes. Data mean±SEM of values obtained from a representative experiment (n=10 animals/group). ****p<0.0001 ***p<0.001 **p<0.01 *p<0.05 as compared with the control group (Vh).
as §5, with “16:” for “9:”, “MOA51” for “Serodolin”, “i.p.injection” for “i.p. injection”, “animals/group).” for “animals/group). ****p<0.0001 ***p<0.001”, “**p<0.01” for “**p<0.01 *p<0.05”
Writhing tests: Mice (25-35 g). Groups of mice (n=10) received by oral, subcutaneous or intravenous route Serodolin at different doses (0.1-10 mg/kg) one hour before intraperitoneally injection of 1% acetic acid in a volume of 10 ml/kg. Control group received vehicle (10 ml/kg, solution of 20% DMSO and 5% tween 80). The test was carried out 5 minutes later after acid acetic injection. The characteristic writhing responses have been observed individually and counted for 10 minutes.
Analgesic activity was first evaluated using the acetic acid abdominal constriction test (writhing test), a chemical model of visceral pain. We evaluated the dose-response effect of Serodolin following single oral, intravenous and subcutaneous administration of the compound one hour before injection of acetic acid.
Analgesic activity was evaluated using the acetic acid abdominal constriction test (writhing test), a chemical model of visceral pain. We evaluated the dose-response effect of MOA51 following single oral, intravenous and subcutaneous administration of the compound one hour before injection of acetic acid. MOA51 administered by the oral route induced statistically significant dose-dependent decreases in the number of writhings at and above the dose of 1 mg/kg. By the intravenous route, MOA51 induced dose-dependent decreases in the number of writhings at and above the dose of 0.1 mg/kg.

Sprague-Dawley male rats = test: Formalin induced inflammatory pain model; type: in vivo; conditions: single s.c., Serodolin 10 mg/kg, MOA51 1 mg/kg, morphine
Procedure: FIG. 18: Effect of a single administration of Serodolin (AIC01) or MOA51 in the formalin test in rats. Effect of a single subcutaneous administration of Serodolin (AIC01) or MOA51 in the formalin test in rats. In this test, Sprague-Dawley male rats received unilateral injection of a 2.5% formalin solution (50 μl) into the plantar aspect of the hindpaw on testing day (i.e. D0). Control group received Vehicle (20% DMSO/5% Tween 80/NaCl). Serodolin was subcutaneously (sc) administrated at 10 mg/kg and MOA51 at 1 mg/kg. Positive control animals were treated with morphine (3 mg/kg, sc). Paw licking time was measured. Results are expressed as mean±s.e.m. Percentage are expressed as decreased as compared to the vehicle-treated group and represented as figure (B). ***: p<0.001 as compared to the vehicle-treated group, Bonferroni's test after significant Two-way Repeated Measures ANOVA. NS: Non-significant.
Sprague-Dawley male rats (n=10 rats per group) received unilateral injection of a 2.5% formalin solution (50 μl) into the plantar aspect of the hindpaw on testing day (i.e. D0). Experience was separated into 4 groups of animals. Formalin animals+vehicle-treated group; […]—Formalin animals+Sponsor's Serodolin (10 mg/kg), s.c.—Formalin animals+Sponsor's MOA51 (1 mg/kg), s.c.—Formalin animals+internal validator-treated group (Morphine at 4 mg/Kg, s.c.). Single subcutaneous administration of the Vehicle and Sponsor's Compound 30 min (or other timing depending on Sponsor's design) before formalin injection on testing day (i.e. D0)/Subcutaneous administration of Morphine 30 min before formalin injection on testing day (i.e. D0). Hindpaw licking time recorded in consecutive 5 minutes periods from 0 to 5 minutes (early phase) and 17 to 27 minutes (late phase) after formalin injection.
We evaluated the effect of Serodolin as well as MOA51 in rats in the formalin test, an acute and tonic pain model based on the use of a chemical stimulus. Subcutaneous injection of formalin into the right hindpaw produces a biphasic painful response of increasing and decreasing intensity for about 30 minutes after the injection. […] Although not significant, Serodolin, MOA51 and morphine have an inhibitory effect (−40%, −35% and −57% respectively) during the early phase.

| Compound | IC50 (human 5-HT7a receptor) [nM] | Ki (human 5-HT7a receptor) [nM] | other results |
| --- | --- | --- | --- |
| O=c1[nH]c2ccccc2n1CCCCCN1CCN(c2ccccc2O)CC1 [JLB010] | 7.99 | 5.61 | – |
| O=c1[nH]c2ccccc2n1CN1CCN(c2ccccc2C(F)(F)F)CC1 [JLB011] | 4.74 | 3.33 | – |
| O=c1[nH]c2ccccc2n1CCCCCN1CCN(c2ccccn2)CC1 [JLB012] | 1.69 | 1.18 | IC50 ([1]; read-out: RLB 5-HT2Cedited IC50; selectivity panel): 5250 nM; Ki ([1]; read-out: RLB 5-HT2Cedited Ki; selectivity panel): 863 nM; IC50 (human 5-HT1A receptor): 41.3 nM; Ki (human 5-HT1A receptor): 20.7 nM; IC50 (human 5-HT2A receptor): 44.2 nM; Ki (human 5-HT2A receptor): 7.3 nM |
| O=c1[nH]c2ccccc2n1CCCCCN1CCN(c2ncccn2)CC1 [JLB013] | 9.68 | 6.8 | – |
| O=c1[nH]c2ccccc2n1CCCCCN1CCN(c2ccccc2F)CC1 [JLB014] | 3.29 | 2.31 | – |
| O=c1[nH]c2ccccc2n1CCCCCN1CCN(c2ccc(F)cc2)CC1 [JLB015] | 4.39 | 3.09 | – |
| O=c1[nH]c2ccccc2n1CCCCCN1CCN(c2ccc(C(F)(F)F)cc2)CC1 [JLB017] | 7.19 | 5.05 | – |
| O=c1[nH]c2ccccc2n1CCCCCN1CCN(c2ccncc2)CC1 [JLB020] | 260 | 182 | – |
| O=c1[nH]c2ccccc2n1CCCCCN1CCN(c2ccncn2)CC1 [JLB022] | 136 | 95.5 | – |
| O=c1[nH]c2ccccc2n1CCCCCN1CCN(c2ncncn2)CC1 [JLB023] | 370 | 260 | – |
| O=c1[nH]c2ccccc2n1CCOCCN1CCN(c2ccc(F)cc2)CC1 [JLB048] | 19.1 | 13.4 | – |
| O=c1[nH]c2ccccc2n1CCCCCN1C[C@@H]2CN(c3ccc(F)cc3)C[C@@H]2C1 [JLB061] | 5.97 | 4.19 | – |
| O=c1[nH]c2ccccc2n1CCCCCN1CC2(C1)CN(c1ccc(F)cc1)C2 [JLB088, 1-(5-(6-(4-fluorophenyl)-2,6-diazaspiro[3.3]heptan-2-yl)pentyl)-1H-benzo[d]imidazol-2(3H)-one] | 174 | 122 | – |
| CC(C)(CCN1CCN(c2ccc(F)cc2)CC1)CCn1c(=O)[nH]c2ccccc21 [JLB094] | 2.7 | 1.9 | IC50 ([1]; selectivity panel; read-out: RLB 5-HT2Cedited IC50): 1100 nM; Ki ([1]; selectivity panel; read-out: RLB 5-HT2Cedited Ki): 181 nM; IC50 (human 5-HT1A receptor): 167 nM; Ki (human 5-HT1A receptor): 83.6 nM; IC50 (human 5-HT2A receptor): 6.23 nM; Ki (human 5-HT2A receptor): 1.02 nM |
| O=c1[nH]ccn1CCCCCN1CCN(c2ccc(F)cc2)CC1 [JLB102, 1-(5-(4-(4-fluorophenyl)piperazin-1-yl)pentyl)-1H-imidazol-2(3H)-one] | 17 | 11.9 | – |
| O=c1[nH]c2ccccc2n1CCCCCN1CCCN(c2ccccn2)CC1 [JLB118, 1-(5-(4-(pyridin-2-yl)-1,4-diazepan-1-yl)pentyl)-1H-benzo[d]imidazol-2(3H)-one] | 69.7 | 48.9 | – |
| Cc1ccc(N2CCCN(CCCCCn3c(=O)[nH]c4ccccc43)CC2)cc1 [JLB119, 1-(5-(4-(p-tolyl)-1,4-diazepan-1-yl)pentyl)-1H-benzo[d]imidazol-2(3H)-one] | 24.2 | 17 | – |
| Cc1ccc(N2CC3(CN(CCCCCn4c(=O)[nH]c5ccccc54)C3)C2)cc1 [JLB137, 1-(5-(6-(p-tolyl)-2,6-diazaspiro[3.3]heptan-2-yl)pentyl)-1H-benzo[d]imidazol-2(3H)-one] | 687 | 482 | – |
| O=c1[nH]c2ccccc2n1CCCCCN1CC2(C1)CN(c1ccccn1)C2 [JLB138, 1-(5-(6-(pyridin-2-yl)-2,6-diazaspiro[3.3]heptan-2-yl)pentyl)-1H-benzo[d]imidazol-2(3H)-one] | 5070 | 3560 | – |
| O=c1[nH]c2ccccc2n1CCCCCN1CCN(c2ccc(O)cc2)CC1 [MOA43] | 1.95 | 1.37 | – |
| CC1CCN(CC[C@H]2CCCN2S(=O)(=O)c2cccc(O)c2)CC1 [SB269970, reference compound] | – | – | acute thermal nociception, antagonist administrated alone (mice [2]): did not exert any significant effect on acute thermal nociception |
| CN1CC[C@]23c4c5ccc(O)c4O[C@H]2[C@@H](O)C=C[C@H]3[C@H]1C5 [morphine, reference compound] | – | – | inhibition of the writhing assay response (mice [3]): full inhibition; inhibitory effect on paw licking, early phase (Sprague-Dawley male rats; 0 to 5 minutes, not significant): −57%; inhibition of licking, late phase (Sprague-Dawley male rats; 17 to 27 minutes): −64% |
